{
  "source": "patent US20090069324A1",
  "about": "“CHEMICAL INHIBITORS OF BFL-1 AND RELATED METHODS” (The Burnham Institute, priority 2007, published 2009)",
  "key": {"PAMPA assay": {"assay": "PAMPA assay", "format": "in vitro ADME"}, "[1]": {"system": "cord blood derived human mast cells (CBMCs)", "assay": "LDH release cytotoxicity assay", "format": "cell-based", "protocol": "To investigate whether a Bfl-1 inhibitor is cytotoxic to cord blood derived human mast cells (CBMCs), a […] assay based on the measurement of lactate dehydrogenase (LDH) activity is used. CBMC are cultured with various concentrations of the Bfl-1 inhibitor, and LDH release into the culture supernatant is measured. […] The positive control in FIG. 8 is a control included in the LDH kit. Thus, CID-779754 is not cytotoxic to in vitro developed human mast cells."}, "Solubility": {"assay": "Solubility", "conditions": "aqueous buffer", "protocol": "Compounds were screened for inhibitory activity of Bfl-1 essentially as described in Example 1, and including a 1 h incubation of Bfl-1 in the presence of compounds and a 4 h incubation after the subsequent addition of the fluorescent probe. […] The assay was screened against the entire NIH small molecule library, which at the time consisted of 65,000 compounds. […] Controls included an “artifact” plate on which a GAPDH assay was performed to check selectivity, and a solubility plate on which a solubility assay was performed to test solubility."}, "Bfl-1": {"molecular_target": "T1, Bfl-1 (Homo sapiens, UniProt Q16548)", "T1 construct": "lacking their C-terminal transmembrane domains (approximately last 20 amino-acids); made in house; host or cells: XL-1 Blue cells (E. coli), pGEX 4T-1", "T1 sequence (Q16548 1-155 limits assumed)": "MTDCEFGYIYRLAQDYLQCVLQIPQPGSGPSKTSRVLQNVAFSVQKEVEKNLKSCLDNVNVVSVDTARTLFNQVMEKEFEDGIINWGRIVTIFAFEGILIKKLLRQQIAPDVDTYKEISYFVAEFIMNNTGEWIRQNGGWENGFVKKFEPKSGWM", "assay": "Bfl-1 fluorescence polarization assay (FPA/FP), competition with FITC-Bid BH3 peptide", "format": "binding", "conditions": "for Bfl-1 FP assay, activity in words: Bfl-1/FITC-Bid", "protocol": "Fluorescence polarization assays (FPA). To determine the binding affinity of anti-apoptotic Bcl-2 polypeptides to FITC-conjugated Bid BH3 peptide, fluorescence polarization assays (FPAs) were performed according to published procedures (Zhai et al., Biochem. J. 376:229-236 (2003)). […] Fluorescence polarization was measured after 10 min using an Analyst™ AD Assay Detection System (LJL Biosystem, Sunnyvale, Calif.) in phosphate-buffered saline (PBS) (pH 7.4). The IC50 determinations were performed using GraphPad Prism software (GraphPad, Inc., San Diego, Calif.).\nCompetition assays. Using the same procedure outlined above, 100 nM of GST-Bfl-1 protein were incubated with the compounds at 50 μM concentration for 30 min. Then, 5 nM of FITC-Bid BH3 peptide was added. Fluorescence polarization was measured after 10 min. […]"}, "Bcl-2": {"molecular_target": "T2, Bcl-2 (Homo sapiens, UniProt P10415)", "T2 construct": "lacking their C-terminal transmembrane domains (approximately last 20 amino-acids); GST (N); made in house; host or cells: XL-1 Blue cells (E. coli), pGEX 4T-1", "T2 sequence (P10415 1-218 limits assumed)": "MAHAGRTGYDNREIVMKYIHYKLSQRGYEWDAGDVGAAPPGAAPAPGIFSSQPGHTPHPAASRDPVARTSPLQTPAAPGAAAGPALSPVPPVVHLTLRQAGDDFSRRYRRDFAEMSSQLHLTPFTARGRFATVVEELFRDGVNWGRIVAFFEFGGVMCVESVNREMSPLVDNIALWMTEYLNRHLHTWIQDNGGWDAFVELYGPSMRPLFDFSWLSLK", "assay": "Bcl-2/FITC-Bim FPA selectivity assay", "format": "binding", "conditions": "Bcl-2/FITC-Bim complex", "text": "This example illustrates assays for determining the selectivity of chemical inhibitors for Bfl-1. Bfl-1, as with other Bcl-2 family proteins, participates in a very complex and intricate network of interactions with other representatives of the family. Therefore, two selectivity assays involving family members Bcl-2 and Bcl-B were developed.\nFor Bcl-2, a FITC-conjugated peptide corresponding to the BH3 domain of Bim was used. For Bcl-B, a FITC-conjugated peptide corresponding to a fragment of the TR3/Nur77 protein shown to bind this member of the Bcl-2 family was used.\nProbe specificity for target or for cell-based/phenotypic assays data can be determined in orthogonal cell-based assay systems that address the pathway of interest. For example, compounds were tested in Bfl-1/FITC-Bid FPA and TR-FRET assays (FIGS. 7A and 7B, respectively), as well as Bcl-2/FITC-Bim FPA (FIG. 7C) and Bcl-B/FITC-TR3-R8 FPA (FIG. 7D) assays. Data represent concentration in μM x-axis) vs % displacement (y-axis)."}},
  "data": [
    {"smiles": "CN(C)C1=C(Cl)C(=O)N(c2ccc(Cl)c(Cl)c2)C1=O", "note": "[CID-779754, 3-chloro-1-(3,4-dichlorophenyl)-4-(dimethylamino)-1H-pyrrole-2,5-dione]", "values": [
      {"measurement": "log Pe", "setting": "PAMPA assay; PAMPA", "result": "−4.2"},
      {"measurement": "predicted human GI absorption", "setting": "PAMPA assay; correlated from PAMPA log Pe", "result": "> 50", "unit": "%"},
      {"measurement": "cytotoxicity (LDH release)", "setting": "[1]; 0.1-100 μM, n=4 donors", "result": "no cytoxicity"},
      {"measurement": "toxicity to normal human cells", "setting": "[1]; normal human cells", "result": "not toxic to normal human cells"},
      {"measurement": "solubility", "setting": "Solubility", "result": "≤ 100", "unit": "µM"},
      {"measurement": "Bfl-1 FP assay, activity in words", "setting": "Bfl-1", "result": "binds reversibly and competes"},
      {"measurement": "Bfl-1 FP assay, activity in words", "setting": "Bfl-1; listed as MLS-0067130", "result": "equipotent with CID-1180676"},
      {"measurement": "IC50", "setting": "Bfl-1; Bfl-1 FP IC50 (uM), Tables 3-5", "result": 0.46, "unit": "µM"},
      {"measurement": "Competition for binding of a BH3 peptide to Bcl-2, in words", "setting": "Bcl-2", "result": "weak activity"}
    ]}
  ]
}
